# Laboratory results from paper PMC9908594, “Biochemical characterization and identification of ferulenol and embelin as potent inhibitors of malate:quinone oxidoreductase from Campylobacter jejuni” (Frontiers in Molecular Biosciences, 2023).
# Several values for one entry are separate records, joined by “and”; a condition that tells them apart may be missing. Equal entries are not always repeated. Where two headings read alike, the source gives them in different places.
# Experiments:
# [1] = molecular target: CjMQO (malate:quinone oxidoreductase from C. jejuni) (Campylobacter jejuni, UniProt P56954); experiment: biochemical; type: biochemical; conditions: 50 mM MOPS pH 7.0, 100 μM UQ1, 1 mM KCN, 0.2 μg/mL CjMQO, 10 mM malate; read-out: IC50 on purified CjMQO
# [2] = tested on: C. jejuni ATCC29428; experiment: C. jejuni growth inhibition, resazurin assay; type: cell-based, Campylobacter jejuni; conditions: for IC50: Mueller Hinton broth, 24 h, microaerophilic, 37°C, resazurin
# [3] = molecular target: T1, CjMQO (Campylobacter jejuni, UniProt P56954); experiment: Inhibition mechanism of CjMQO (mixed-model fit, Lineweaver-Burk); type: biochemical; conditions: for K i versus UQ1: malate fixed (10 mM); for Inhibition type versus UQ1 (quinone): NC: noncompetitive; for K i versus malate: UQ1 fixed (50 μM)
# Method: The inhibition mechanism of the two compounds were investigated as described in a previous study ([Acharjee et al., 2021]). First, the inhibition mechanism versus UQ1 was assayed separately in a reaction mixture containing 50 mM MOPS pH 7.0, 1 mM KCN and 0.2 μg/mL of purified CjMQO containing a range of different ferulenol (0, 0.01, 0.02, and 0.04 μM) and embelin (0, 0.05, 0.1, and 0.15 μM) concentrations. Enzyme activity was measured at varying concentrations of UQ1 (5, 10, 20, 50, and 100 μM) and the reaction was initiated with 10 mM malate. Second, the inhibition mechanism versus malate was determined at 50 μM of UQ1, and the reaction was initiated with varying concentrations of malate (5, 10, 15, and 20 mM) and monitored at 278 nm, in singlets. The steady-state kinetics parameters, in the presence of inhibitors, were used to produce the Lineweaver-Burk plot. Next, the data were fitted to a mixed-type inhibition equation by a nonlinear-regression method using GraphPad Prism software. The intercept and slope from the primary plot (Lineweaver-Burk plot), were replotted as a function of the inhibitor. Finally, additional analysis was performed based on Dixon and Cornish Bowden plots in addition to the plot of Lineweaver-Burk to differentiate the types of inhibition mechanisms.
# [4] = molecular target: PfMQO (P. falciparum MQO) (Plasmodium falciparum, UniProt C6KT09); parameters: method as in Hartuti et al., 2018; conditions: previously reported; ref Hartuti et al., 2018; cited from earlier work
# Chain of PfMQO (P. falciparum MQO) (C6KT09 entry or part of it): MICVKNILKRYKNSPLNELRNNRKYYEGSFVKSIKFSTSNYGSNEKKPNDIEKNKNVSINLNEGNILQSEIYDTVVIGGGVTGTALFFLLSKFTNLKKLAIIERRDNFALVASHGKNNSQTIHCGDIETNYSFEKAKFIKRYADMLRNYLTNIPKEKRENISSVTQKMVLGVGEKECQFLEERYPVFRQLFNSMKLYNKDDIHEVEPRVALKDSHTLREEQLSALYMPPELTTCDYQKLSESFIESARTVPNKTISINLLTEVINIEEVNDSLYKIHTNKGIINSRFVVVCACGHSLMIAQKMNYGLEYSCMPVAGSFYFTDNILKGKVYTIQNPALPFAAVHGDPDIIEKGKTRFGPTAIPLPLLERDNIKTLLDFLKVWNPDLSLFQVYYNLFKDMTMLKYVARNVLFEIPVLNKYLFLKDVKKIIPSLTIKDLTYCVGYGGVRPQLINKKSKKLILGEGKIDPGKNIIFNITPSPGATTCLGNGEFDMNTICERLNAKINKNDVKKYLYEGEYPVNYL
# [5] = tested on: TgMQO; parameters: method as in Acharjee et al., 2021; conditions: previously reported; ref Acharjee et al., 2021; cited from earlier work
# [6] = tested on: DLD-1 (colon cancer-derived); parameters: method as in Hartuti et al., 2018; conditions: ref Hartuti et al., 2018, read-out: Cytotoxicity IC50; cited from earlier work
# [7] = tested on: Panc-1 (pancreatic cancer-derived); parameters: method as in Hartuti et al., 2018; conditions: ref Hartuti et al., 2018, read-out: Cytotoxicity IC50; cited from earlier work
# [8] = tested on: human dermal fibroblast; parameters: method as in Hartuti et al., 2018; conditions: ref Hartuti et al., 2018, read-out: Cytotoxicity IC50; cited from earlier work
# [9] = tested on: human fibroblasts; parameters: method as in Feresin et al., 2003; conditions: ref Feresin et al., 2003, read-out: Toxic concentration IC50; cited from earlier work
# [10] = molecular target: T1, CjMQO; experiment: Steady-state kinetics of purified CjMQO for substrates; type: biochemical; conditions: for K m for malate: malate varied
# Method: (§1) The steady-state kinetic parameters of CjMQO were determined for malate and ubiquinone (UQ) with different side chain length (UQ0, UQ1, UQ2, UQ4, and dUQ; Supplementary Figure S3). The reaction mixture contained UQ, 1% (v/v) ethanol, 50 mM MOPS, 1 mM KCN and 0.2 μg/mL of purified CjMQO at the optimal pH (pH 7.0) and physiological temperature (37°C). The reduction of quinones was measured through the decrease in the absorbance at 278 nm ( ε278= 15 mM^-1 cm^-1). The Michaelis constant (K m) and maximum velocity (V max) of CjMQO for UQs were determined by varying the concentrations of UQs from 0.1 to 100 μM with the malate concentration fixed at 10 mM.
# (§2) Next, K m and V max of CjMQO for malate were determined by varying the concentrations from 0.5 to 50 mM at fixed concentrations of different UQs (100 μM for UQ0 and UQ1 and 10 μM for dUQ and UQ2). The apparent steady-state kinetic parameters were calculated by Michaelis-Menten equation using GraphPad Prism software (ver. 9.3.1, GraphPad Software, Inc., San Diego, California, United States). Following the protocol previously described for TgMQO ([Acharjee et al., 2021]), the reaction mechanism of CjMQO was analysed using malate and UQ1 as substrates. Briefly, CjMQO activity was measured at different UQ1 concentrations (2, 5, 10, 20, and 50 μM) with malate concentrations fixed at 0.5, 2, and 5 mM; the data were then analysed using a double reciprocal plot (Lineweaver-Burk plot) produced by utilizing intercept and slope calculated from steady-state kinetics parameters obtained by fitting the data to Michalis-Menten equation with GraphPad Prism software. The type of reaction mechanism was determined based on the characteristics of the lines plotted in the double reciprocal plot.
# [11] = tested on: TgMQO; parameters: method as in Acharjee et al., 2021; conditions: ref Acharjee et al., 2021, cited from earlier work
# [12] = tested on: PfMQO; parameters: method as in Hartuti et al., 2018; conditions: for dUQ; ref Hartuti et al., 2018; cited from earlier work
# [13] = substrate: CCCCCCCCCCC1=C(C)C(=O)C(OC)=C(OC)C1=O; experiment: Steady-state kinetics of purified CjMQO for substrates; type: biochemical; conditions: other: UQ varied, malate fixed 10 mM; pH 7.0; 37.0 °C
# Method: as §1, §2
# [14] = substrate: COC1=C(OC)C(=O)C(CC=C(C)C)=C(C)C1=O; experiment: as above; type: biochemical; conditions: pH 7.0, 37.0 °C
# Method: as §1, §2
# [15] = substrate: O=C(O)CC(O)C(=O)O; experiment: as above; type: biochemical; conditions: other: malate varied, pH 7.0, 37.0 °C
# Method: as §1, §2
# [16] = other: UQ varied, malate fixed 10 mM
molecule,measurement,setting,value
"CC(C)=CCC/C(C)=C/CC/C(C)=C/Cc1c(O)c2ccccc2oc1=O [Ferulenol, ferulenol]",IC50,[1],18 nM
same,IC50,[2],600 nM
same,"K m (apparent, mixed-model fit)","[3]; UQ1 varied, malate fixed",42 ± 5 µM
same,"V max (apparent, mixed-model fit)","[3]; UQ1 varied, malate fixed",133 ± 7 µmol/min/mg
same,α versus UQ1 (quinone),"[3]; UQ1 varied, malate fixed",1.04
same,K i versus UQ1,[3]; UQ1 varied,20 nM
same,Inhibition type versus UQ1 (quinone),"[3]; UQ1 varied, malate fixed",noncompetitive
same,Inhibition type versus malate,"[3]; malate varied, UQ1 fixed",Mixed
same,"K m (apparent, mixed-model fit)","[3]; malate varied, UQ1 fixed","1,845 ± 201 μM"
same,"V max (apparent, mixed-model fit)","[3]; malate varied, UQ1 fixed",70 ± 2 µmol/min/mg
same,α versus malate,"[3]; malate varied, UQ1 fixed",2.66
same,K i versus malate,[3]; malate varied,10 nM
same,Inhibition type versus malate,"[3]; malate varied, UQ1 fixed, listed as ferulenol",mixed-type
same,IC50,[4],57 nM
same,IC50,[5],822 nM
same,IC50,[6],50100 nM
same,IC50,[7],50200 nM
same,IC50,[8],65800 nM
"CCCCCCCCCCCC1=C(O)C(=O)C=C(O)C1=O [Embelin, 2,5-dihydroxy-3-undecyl-p-benzoquinone]",IC50,[1],87 nM
same,IC50,"[2]; Campylobacter jejuni, ATCC29428",21000 nM
same,Inhibition of growth of C. jejuni ATCC29428,[2]; at a concentration of 100 μM,completely inhibited
same,"K m (apparent, mixed-model fit)","[3]; UQ1 varied, malate fixed",47 ± 6.3 µM
same,"V max (apparent, mixed-model fit)","[3]; UQ1 varied, malate fixed",164 ± 11 µmol/min/mg
same,α versus UQ1 (quinone),"[3]; UQ1 varied, malate fixed",0.998
same,K i versus UQ1,[3]; UQ1 varied,140 nM
same,Inhibition type versus UQ1 (quinone),"[3]; UQ1 varied, malate fixed",noncompetitive
same,Inhibition type versus malate,"[3]; malate varied, UQ1 fixed",Mixed
same,"K m (apparent, mixed-model fit)","[3]; malate varied, UQ1 fixed","2,225 ± 292 μM"
same,"V max (apparent, mixed-model fit)","[3]; malate varied, UQ1 fixed",71 ± 3 µmol/min/mg
same,α versus malate,"[3]; malate varied, UQ1 fixed",1.43
same,K i versus malate,[3]; malate varied,100 nM
same,Inhibition type versus malate,"[3]; malate varied, UQ1 fixed, listed as embelin",mixed-type
same,IC50,[9],739000 nM
COC1=C(OC)C(=O)C(C/C=C(\C)CCC=C(C)C)=C(C)C1=O [UQ2],V max,"[10]; UQ varied, malate fixed 10 mM",108 µmol/min/mg and 108 ± 10 µmol/min/mg
same,k cat,"[10]; UQ varied, malate fixed 10 mM",485 ± 42.0 s⁻¹
same,k cat /K m,"[10]; UQ varied, malate fixed 10 mM",1.07e+08 M⁻¹ s⁻¹
same,K m for ubiquinone,"[10]; UQ varied, malate fixed 10 mM, pH 7.0, 37°C",4.6 µM and 4.60 ± 1.0 µM
"O=C(O)CC(O)C(=O)O (stereo not shown) [Malate, sodium malate]",K m for malate,[10]; UQ0 fixed (100 μM),298 ± 18 µM
same,K m for malate,"[10]; UQ0 fixed (100 μM), listed as malate",298 µM
same,K m for malate,[10]; UQ1 fixed (100 μM),882 ± 49 µM
same,K m for malate,"[10]; UQ1 fixed (100 μM), listed as malate",882 µM
same,K m for malate,[10]; UQ2 fixed (10 μM),"1,031 ± 93 μM"
same,K m for malate,"[10]; UQ2 fixed (10 μM), listed as malate","1,031 μM"
same,K m for malate,[10]; dUQ fixed (10 μM),"1,209 ± 160 μM"
same,K m for malate,"[10]; dUQ fixed (10 μM), listed as malate","1,209 μM"
same,K m of TgMQO for malate,[11]; in the presence of UQ1,370 µM
same,K m of TgMQO for malate,[11]; in the presence of UQ2,637 µM
same,K m of TgMQO for malate,[11]; in the presence of dUQ,466 µM
same,K m of PfMQO for malate,[12],"5,990 μM"
CjMQO (Campylobacter jejuni subsp. jejuni NCTC 11168 = ATCC 700819) (protein) MSQQEFDVLVIGAGISGAALFYELARYTNIKNIALIEKYNTAATLNSKGTSNSQTIHCGDIETNYTLEKARKVKRTADMIVKYGLMQNAQNNFMFSHQKMALAVGDIECDYMKKRYEEFKELYPYIKFFDKAKIKQIEPKVVLGEDCNQDRPENICAMGVESGEVFTTVDFGKMSINLIEQAQKQNKNTFVAFNQEIIHIEKKDDIFILKTSNHQEYHAKSVVVNAGAHSLYLAHKMNLGMDKSCWPVAGSFYLTKQKLLNGKVYMVQNPKLPFAALHGDPDLLADMNTRFGPTALVIPKLERYHGLKSVPEFFEALKLDKTVLKVTFNMFKDATIRNYIFYNYLFELPFVDKSLFVKDAKKIVPSLKASDIYYAKGFGGVRPQVIDKTKGELMLGEASITETPGIIFNMTPSPGATSCLGNAERDAKLVCNYLGMEFNEDKFSSELL,kcat,[13],343 ± 40.4 s⁻¹
same,kcat/Km,[13],4.02e+07 M⁻¹ s⁻¹
same,kcat,[14]; [16],480 ± 18.7 s⁻¹
same,kcat/Km,[14]; [16],1.05e+07 M⁻¹ s⁻¹
same,Km,[14]; other: malate fixed at 0.5 mM,16.3 µM
same,Km,[14]; other: malate fixed at 2 mM,23.8 µM
same,Km,[14]; other: malate fixed at 10 mM,32.6 µM
same,kcat,[15]; UQ0 fixed (100 μM),67 ± 1.1 s⁻¹
same,kcat/Km,[15]; UQ0 fixed (100 μM),200000 M⁻¹ s⁻¹
same,kcat,[15]; UQ1 fixed (100 μM),502 ± 55.6 s⁻¹
same,kcat/Km,[15]; UQ1 fixed (100 μM),600000 M⁻¹ s⁻¹
same,kcat,[15]; UQ2 fixed (10 μM),389 ± 7.6 s⁻¹
same,kcat/Km,[15]; UQ2 fixed (10 μM),400000 M⁻¹ s⁻¹
same,kcat,[15]; dUQ fixed (10 μM),210 ± 19.2 s⁻¹
same,kcat/Km,[15]; dUQ fixed (10 μM),200000 M⁻¹ s⁻¹
